# Values of other authors, collected in patent US12127968B2, “Methods and devices for controlled delivery” (Femasys Inc., priority 2018, dated 2024).
# Structures can show the parent of a compound that is named as a salt.
# System: ovulation
# Settings: patients whose only factor is ovulatory dysfunction
smiles,measurement,value
CCN(CC)CCOc1ccc(C(=C(Cl)c2ccccc2)c2ccccc2)cc1 [Clomiphene citrate],patients in whom normal ovulation is restored,about 80%
